Laboratory results reported in patent US20160280699A1, “SUBSTITUTED PHENYLALANINE DERIVATIVES” (BAYER PHARMA AKTIENGESELLSCHAFT, priority 2013, published 2016).
Counter-ions that a name gives are not always drawn.

Assays:
human and animal plasma = assay: Determination of anticoagulatory activity: activated partial thromboplastin time (aPTT) in plasma; type: biochemical; details: concentration of test substance which brings about a 1.5-fold extension of the aPTT, 37° C., C.K. Prest kit
Description: The anticoagulatory activity of the test substances is determined in vitro in human and animal plasma (for example mouse, rat, rabbit, pig and dog plasma). To this end, blood is drawn off in a mixing ratio of sodium citrate/blood of 1:9 using a 0.11 molar sodium citrate solution as receiver. Immediately after the blood has been drawn off, it is mixed thoroughly and centrifuged at about 4000 g for 15 minutes. The supernatant is pipetted off.
The activated partial thromboplastin time (aPTT) is determined in the presence of varying concentrations of test substance or the corresponding solvent using a commercial test kit (C.K. Prest from Diagnostica Stago). The test compounds are incubated with the plasma and the PTT reagent (cephalin, kaolin) at 37° C. for 3 minutes. Coagulation is then started by addition of a 25 mM aqueous calcium chloride solution, and the time when coagulation occurs is determined. The concentration of test substance which brings about a 1.5-fold extension of the aPTT is determined Activity data from this test are listed in Table B below: […]

human factor XIa = biological target: T1, human factor XIa (Homo sapiens, UniProt P03951); assay: Measurement of FXIa inhibition (fluorogenic peptide substrate Boc-Glu(OBzl)-Ala-Arg-AMC); type: biochemical; details: factor XIa from Kordia, 15 min preincubation, 30 min at 22° C., fluorescence
T1 construct: purchased Kordia
T1 sequence (P03951 388-625 limits assumed): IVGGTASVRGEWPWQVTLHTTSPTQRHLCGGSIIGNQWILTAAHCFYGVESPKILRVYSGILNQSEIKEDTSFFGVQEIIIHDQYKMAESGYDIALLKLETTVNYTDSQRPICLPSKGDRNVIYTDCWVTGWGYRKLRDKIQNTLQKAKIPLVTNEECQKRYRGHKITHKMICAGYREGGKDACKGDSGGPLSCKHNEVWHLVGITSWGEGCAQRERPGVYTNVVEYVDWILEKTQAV
T1 sequence (P03951 19-387 partner limits assumed): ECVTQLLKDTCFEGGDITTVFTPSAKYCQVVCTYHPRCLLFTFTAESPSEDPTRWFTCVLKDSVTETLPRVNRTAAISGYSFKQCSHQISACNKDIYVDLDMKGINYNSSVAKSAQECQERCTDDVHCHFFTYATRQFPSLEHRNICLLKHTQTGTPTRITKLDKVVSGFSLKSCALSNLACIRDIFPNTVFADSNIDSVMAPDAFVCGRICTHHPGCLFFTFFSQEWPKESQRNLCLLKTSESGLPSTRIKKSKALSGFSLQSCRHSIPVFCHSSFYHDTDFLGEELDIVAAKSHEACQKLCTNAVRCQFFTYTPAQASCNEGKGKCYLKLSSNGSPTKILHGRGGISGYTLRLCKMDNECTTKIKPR
Description: The factor XIa inhibition of the substances according to the invention is determined using a biochemical test system which utilizes the reaction of a peptidic factor XIa substrate to determine the enzymatic activity of human factor XIa. Here, factor XIa cleaves from the peptic factor XIa substrate the C-terminal aminomethylcoumarin (AMC), the fluorescence of which is measured. The determinations are carried out in microtitre plates.
Test substances are dissolved in dimethyl sulphoxide and serially diluted in dimethyl sulphoxide (3000 μM to 0.0078 μM; resulting final concentrations in the test: 50 μM to 0.00013 μM). In each case 1 μl of the diluted substance solutions is placed into the wells of white microtitre plates from Greiner (384 wells). Subsequently, the following are added successively: 20 μl of assay buffer (50 mmol/l Tris buffer pH 7.4; 100 mmol/l sodium chloride; 5 mmol/l calcium chloride; 0.1% bovine serum albumin) and 20 μl of factor XIa from Kordia (0.45 nM in assay buffer). After 15 min of incubation, the enzyme reaction is started by addition of 20 μl of the factor XIa substrate Boc-Glu(OBzl)-Ala-Arg-AMC dissolved in assay buffer (10 μM in assay buffer) from Bachem, the mixture is incubated at room temperature (22° C.) for 30 min and fluorescence is then measured (excitation: 360 nm, emission: 460 nm). The measured emissions of the test batches with test substance are compared to those of control batches without test substance (only dimethyl sulphoxide instead of test substance in dimethyl sulphoxide), and IC50 values are calculated from the concentration/activity relationships.

IC50 (human factor XIa) [nM]	SMILES	aPTT (human and animal plasma) [µmol/L]
2.4	NC[C@H]1CC[C@H](C(=O)N[C@@H](Cc2ccc(-c3ccc(Oc4cccnc4)nc3)cc2)C(=O)Nc2ccc(-c3nn[nH]n3)cc2)CC1 [Example 32, N-alpha-{[trans-4-(Aminomethyl)cyclohexyl]carbonyl}-4-[6-(pyridin-3-yloxy)pyridin-3-yl]-N-[4-(2H-tetrazol-5-yl)phenyl]-L-phenylalaninamide hydrochloride]	0.3
5.9	NC[C@H]1CC[C@H](C(=O)N[C@@H](Cc2ccc(-c3cnccc3Cl)cc2)C(=O)Nc2ccc(-c3nn[nH]n3)cc2)CC1 [Example 12, N-alpha-{[trans-4-(Aminomethyl)cyclohexyl]carbonyl}-4-(4-chloropyridin-3-yl)-N-[4-(2H-tetrazol-5-yl)phenyl]-L-phenylalaninamide hydrochloride]	0.43
1.3	COc1ccc(-c2ccc(C[C@H](NC(=O)[C@H]3CC[C@H](CN)CC3)C(=O)Nc3ccc(-c4nn[nH]n4)cc3)cc2)c(C)n1 [Example 21, N-alpha-{[trans-4-(Aminomethyl)cyclohexyl]carbonyl}-4-(6-methoxy-2-methylpyridin-3-yl)-N-[4-(2H-tetrazol-5-yl)phenyl]-L-phenylalaninamide hydrochloride]	0.27
4.4	Cc1ccncc1-c1ccc(C[C@H](NC(=O)C2CCC(CN)CC2)C(=O)Nc2ccc(-c3nn[nH]n3)cc2)cc1 (stereo partly drawn) [Example 57, N-alpha-{[trans-4-(Aminomethyl)cyclohexyl]carbonyl}-4-(4-methylpyridin-3-yl)-N-[4-(2H-tetrazol-5-yl)phenyl]-L-phenylalaninamide hydrochloride]	0.35
13	CN(C)CCCOc1ccc(-c2ccc(C[C@H](NC(=O)[C@H]3CC[C@H](CN)CC3)C(=O)Nc3ccc(-c4nn[nH]n4)cc3)cc2F)cn1 [Example 45, N-alpha-{[trans-4-(Aminomethyl)cyclohexyl]carbonyl}-4-{6-[3-(dimethylamino)propoxy]pyridin-3-yl}-3-fluoro-N-[4-(2H-tetrazol-5-yl)phenyl]-L-phenylalaninamide hydrochloride]	0.35
3.8	COc1cnccc1-c1ccc(C[C@H](NC(=O)[C@H]2CC[C@H](CN)CC2)C(=O)Nc2ccc(-c3nn[nH]n3)cc2)cc1 [Example 20, N-alpha-{[trans-4-(Aminomethyl)cyclohexyl]carbonyl}-4-(3-methoxypyridin-4-yl)-N-[4-(2H-tetrazol-5-yl)phenyl]-L-phenylalaninamide hydrochloride]	0.22
13	NC[C@H]1CC[C@H](C(=O)N[C@@H](Cc2ccc(-c3ccc(NCCN4CCOCC4)nc3)cc2)C(=O)Nc2ccc(-c3nn[nH]n3)cc2)CC1 [Example 16, N-alpha-{[trans-4-(Aminomethyl)cyclohexyl]carbonyl}-4-(6-{[2-(morpholin-4-yl)ethyl]amino}pyridin-3-yl)-N-[4-(2H-tetrazol-5-yl)phenyl]-L-phenylalaninamide hydrochloride]	0.33
7.2	CN1CCN(c2ccc(-c3ccc(C[C@H](NC(=O)C4CCC(CN)CC4)C(=O)Nc4ccc(-c5nnn[nH]5)cc4)cc3)cn2)CC1 (stereo partly drawn) [Example 54, N-alpha-{[trans-4-(Aminomethyl)cyclohexyl]carbonyl}-4-[6-(4-methylpiperazin-1-yl)pyridin-3-yl]-N-[4-(1H-tetrazol-5-yl)phenyl]-L-phenylalaninamide hydrochloride]	0.21
2.8	NC[C@H]1CC[C@H](C(=O)N[C@@H](Cc2ccc(-c3ccncc3Cl)cc2)C(=O)Nc2ccc(-c3nn[nH]n3)cc2)CC1 [Example 15, N-alpha-{[trans-4-(Aminomethyl)cyclohexyl]carbonyl}-4-(3-chloropyridin-4-yl)-N-[4-(2H-tetrazol-5-yl)phenyl]-L-phenylalaninamide hydrochloride]	0.14
5.5	NC[C@H]1CC[C@H](C(=O)N[C@@H](Cc2ccc(-c3ccnc(N4CCOCC4)c3)cc2)C(=O)Nc2ccc(-c3nn[nH]n3)cc2)CC1 [Example 35, N-alpha-{[trans-4-(Aminomethyl)cyclohexyl]carbonyl}-4-[2-(morpholin-4-yl)pyridin-4-yl]-N-[4-(2H-tetrazol-5-yl)phenyl]-L-phenylalaninamide hydrochloride]	0.48
3.5	Cc1cc(N2CCNCC2)ncc1-c1ccc(C[C@H](NC(=O)[C@H]2CC[C@H](CN)CC2)C(=O)Nc2ccc(-c3nnc(Cl)[nH]3)cc2)cc1 [Example 48, N-alpha-{[trans-4-(Aminomethyl)cyclohexyl]carbonyl}-N-[4-(3-chloro-4H-1,2,4-triazol-5-yl)phenyl]-4-[4-methyl-6-(piperazin-1-yl)pyridin-3-yl]-L-phenylalaninamide hydrochloride]	0.11
15	CS(=O)(=O)c1cncc(-c2ccc(C[C@H](NC(=O)[C@H]3CC[C@H](CN)CC3)C(=O)Nc3ccc(-c4nn[nH]n4)cc3)cc2)c1 [Example 39, N-alpha-{[trans-4-(Aminomethyl)cyclohexyl]carbonyl}-4-[5-(methylsulphonyl)pyridin-3-yl]-N-[4-(2H-tetrazol-5-yl)phenyl]-L-phenylalaninamide hydrochloride]	0.38
3.1	NC[C@H]1CC[C@H](C(=O)N[C@@H](Cc2ccc(-c3ccc(N4CCOCC4)nc3)cc2)C(=O)Nc2ccc3c(=O)[nH][nH]c3c2)CC1 [Example 24, N-alpha-{[trans-4-(Aminomethyl)cyclohexyl]carbonyl}-4-[6-(morpholin-4-yl)pyridin-3-yl]-N-(3-oxo-2,3-dihydro-1H-indazol-6-yl)-L-phenylalaninamide hydrochloride]	0.18
6.7	COc1ccc(-c2ccc(C[C@H](NC(=O)[C@H]3CC[C@H](CN)CC3)C(=O)Nc3ccc4c(=O)[nH][nH]c4c3)cc2)c(C)n1 [Example 30, N-alpha-{[trans-4-(Aminomethyl)cyclohexyl]carbonyl}-4-(6-methoxy-2-methylpyridin-3-yl)-N-(3-oxo-2,3-dihydro-1H-indazol-6-yl)-L-phenylalaninamide hydrochloride]	0.34

SMILES	IC50 (human factor XIa) [nM]	aPTT (human and animal plasma) [µmol/L]
NC[C@H]1CC[C@H](C(=O)N[C@@H](Cc2ccc(-c3cccnc3)cc2)C(=O)Nc2ccc(-c3noc(=O)[nH]3)cc2)CC1 [Example 14, N-alpha-{[trans-4-(Aminomethyl)cyclohexyl]carbonyl}-N-[4-(5-oxo-4,5-dihydro-1,2,4-oxadiazol-3-yl)phenyl]-4-pyridin-3-yl-L-phenylalaninamide hydrochloride]	8.5	0.28
NC[C@H]1CC[C@H](C(=O)N[C@@H](Cc2ccc(-c3ccncc3)cc2)C(=O)Nc2ccc(-c3noc(=O)[nH]3)cc2)CC1 [Example 8, N-alpha-{[trans-4-(Aminomethyl)cyclohexyl]carbonyl}-N-[4-(5-oxo-4,5-dihydro-1,2,4-oxadiazol-3-yl)phenyl]-4-pyridin-4-yl-L-phenylalaninamide hydrochloride]	9.2	0.15
